Tests used:
Format in all cases: in vivo
Setaria viridis (SETVI) = assay: Herbicidal pre-emergence action, test D, single sowings (Table D3); conditions: dosage 80 g/ha, scored after about 3 weeks
From the text: (§1) Seeds of monocotyledonous and dicotyledonous weed plants were laid out in plastic or organic plant pots (single sowings with one species of mono- or dicotyledonous weed plant per pot) and covered with soil. The compounds of the invention, formulated in the form of wettable powders (WP) or as emulsion concentrates (EC), were then applied to the surface of the covering soil as aqueous suspension or emulsion with addition of 0.5% additive at a water application rate equivalent to 600 l/ha (converted). After the treatment, the pots were placed in a greenhouse and kept under good growth conditions for the test plants. After about 3 weeks, the effect of the preparations was scored visually in comparison with untreated controls as percentages. For example, 100% activity=the plants have died, 0% activity=like control plants. Tables D1 to D8 below show the effects of selected compounds of the general formula (I) according to Table 1 on various harmful plants and an application rate corresponding to 80 g/ha, which were obtained by the experimental procedure mentioned above.

[1] = test system: harmful plants ALOMY, DIGSA, SETVI, ABUTH, AMARE, MATIN, VIOTR and VERPE; assay: Herbicidal pre-emergence action (test D), summary of Tables D1-D8; conditions: application rate of 80 g of active ingredient per hectare; summary in words
From the text: as §1, with “plants.” for “plants. Tables D1 to D8 below show the effects of selected compounds of the general formula (I) according to Table 1 on various harmful plants and an application rate corresponding to 80 g/ha, which were obtained by the experimental procedure mentioned above.”
Tables D1 to D8 below show the effects of selected compounds of the general formula (I) according to Table 1 on various harmful plants and an application rate corresponding to 80 g/ha, which were obtained by the experimental procedure mentioned above.

[2] = test system: soybean (GLXMA, var. Sultana), wheat (TRZAS, var. Triso) and corn (ZEAMX, var. Aventura); assay: Pre-emergence crop plant compatibility, summary of Table E1; conditions: applied pre-emergence to soybean, wheat and corn at 80 g of active ingredient per hectare; summary in words
From the text: as §1, with “crop” for “weed”, “placed” for “laid out”, “pots” for “pots (single sowings with one species of mono- or dicotyledonous weed plant per pot)”, “plants.” for “plants. Tables D1 to D8 below show the effects of selected compounds of the general formula (I) according to Table 1 on various harmful plants and an application rate corresponding to 80 g/ha, which were obtained by the experimental procedure mentioned above.”

[3] = test system: Matricaria inodora (MATIN); assay: Herbicidal pre-emergence action, test D, single sowings (Table D6); conditions: dosage 80 g/ha, scored after about 3 weeks
From the text: as §1

[4] = test system: wheat (TRZAS, var. Triso); assay: Pre-emergence crop plant compatibility (Table E1); conditions: dosage 80 g/ha, scored after about 3 weeks, 0% = like control plants
From the text: as §1, with “crop” for “weed”, “placed” for “laid out”, “pots” for “pots (single sowings with one species of mono- or dicotyledonous weed plant per pot)”, “plants.” for “plants. Tables D1 to D8 below show the effects of selected compounds of the general formula (I) according to Table 1 on various harmful plants and an application rate corresponding to 80 g/ha, which were obtained by the experimental procedure mentioned above.”

[5] = test system: corn (ZEAMX, var. Aventura); assay: Pre-emergence crop plant compatibility (Table E1); conditions: dosage 80 g/ha, scored after about 3 weeks, 0% = like control plants
From the text: as §1, with “crop” for “weed”, “placed” for “laid out”, “pots” for “pots (single sowings with one species of mono- or dicotyledonous weed plant per pot)”, “plants.” for “plants. Tables D1 to D8 below show the effects of selected compounds of the general formula (I) according to Table 1 on various harmful plants and an application rate corresponding to 80 g/ha, which were obtained by the experimental procedure mentioned above.”

[6] = test system: soybean (GLXMA, var. Sultana); assay: Pre-emergence crop plant compatibility (Table E1); conditions: dosage 80 g/ha, scored after about 3 weeks, 0% = like control plants
From the text: as §1, with “crop” for “weed”, “placed” for “laid out”, “pots” for “pots (single sowings with one species of mono- or dicotyledonous weed plant per pot)”, “plants.” for “plants. Tables D1 to D8 below show the effects of selected compounds of the general formula (I) according to Table 1 on various harmful plants and an application rate corresponding to 80 g/ha, which were obtained by the experimental procedure mentioned above.”

[7] = test system: Matricaria inodora (MATIN); assay: Herbicidal pre-emergence action, test C (Table C7); conditions: visual scoring after about 3 weeks, 100% = plants have died, 0% = like control plants
Method in brief: (§2)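 Application rates of 1280 or 320 g/ha were delivered as WP or EC formulations in water with 0.5% additive, 600 L/ha, onto soil covering freshly sown seeds in sandy loam. Pots stayed under good greenhouse growth conditions, and efficacy was rated as visual percent after about 3 weeks.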

[8] = test system: Digitaria sanguinalis (DIGSA); assay: Herbicidal pre-emergence action, test D, single sowings (Table D2); conditions: 80 g/ha; scored visually after about 3 weeks; 100% = plants have died, 0% = like control plants
From the text: as §1

[9] = test system: Digitaria sanguinalis (DIGSA); assay: Herbicidal pre-emergence action, test C (Table C10); conditions: visual scoring after about 3 weeks, 100% = plants have died, 0% = like control plants
Method in brief: as §2

Bassia scoparia (KCHSC) = assay: Herbicidal post-emergence action (Table B11); conditions: visual rating about 3 weeks after treatment, 100% = plants have died, 0% = like control plants
Method in brief: (§3)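 Activity was scored visually against untreated plants roughly 3 weeks after treatment, 0% meaning like control and 100% plant death. Application was post-emergence onto green parts at the one-leaf stage, as aqueous suspension/emulsion with 0.5% additive, 600 l/ha, delivering 1280 or 320 g/ha to greenhouse plants in sandy loam.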

[10] = test system: Alopecurus myosuroides (ALOMY); assay: Herbicidal pre-emergence action, test C (Table C9); conditions: visual scoring after about 3 weeks, 100% = plants have died, 0% = like control plants
Method in brief: as §2

[11] = test system: Alopecurus myosuroides (ALOMY); assay: Herbicidal post-emergence action (Table B9); conditions: rated visually after about 3 weeks, 100% = plants have died, 0% = like control plants
Method in brief: as §3

| Structure (SMILES) | Pre-emergence action against Setaria viridis (SETVI) (Setaria viridis (SETVI)) [%] | herbicidal activity against the harmful plants of Tables D1-D8 in pre-emergence treatment [1] | crop plant tolerance in comparison with structurally similar pyrimidinyloxybenzenes (US 2016/333000 Ex. Nos. 53 and 144) [2] | Pre-emergence action against Matricaria inodora (MATIN) [3] [%] | Crop plant compatibility in pre-emergence, TRZAS (damage to wheat) [4] [%] | Crop plant compatibility in pre-emergence, ZEAMX (damage to corn) [5] [%] | Crop plant compatibility in pre-emergence, GLXMA (damage to soybean) [6] [%] | Pre-emergence action against Matricaria inodora (MATIN) ([7]; dosage 320 g/ha) [%] | Pre-emergence action against Matricaria inodora (MATIN) ([7]; dosage 1280 g/ha) [%] | Pre-emergence action against Digitaria sanguinalis (DIGSA) [8] [%] | Pre-emergence action against Digitaria sanguinalis (DIGSA) ([9]; dosage 320 g/ha) [%] | Pre-emergence action against Digitaria sanguinalis (DIGSA) ([9]; dosage 1280 g/ha) [%] | Post-emergence action against Bassia scoparia (KCHSC) (Bassia scoparia (KCHSC); dosage 320 g/ha) [%] | Post-emergence action against Bassia scoparia (KCHSC) (Bassia scoparia (KCHSC); dosage 1280 g/ha) [%] | Pre-emergence action against Alopecurus myosuroides (ALOMY) ([10]; dosage 320 g/ha) [%] | Pre-emergence action against Alopecurus myosuroides (ALOMY) ([10]; dosage 1280 g/ha) [%] | Post-emergence action against Alopecurus myosuroides (ALOMY) ([11]; 320 g/ha) [%] | Post-emergence action against Alopecurus myosuroides (ALOMY) ([11]; 1280 g/ha) [%] |
| --- | --- | --- | --- | --- | --- | --- | --- | --- | --- | --- | --- | --- | --- | --- | --- | --- | --- | --- |
| Fc1cc(Cl)cnc1Oc1cccc(F)c1-c1cc(C(F)F)no1 [Example 1-19] | 100 | very good herbicidal activity | significantly improved crop plant tolerance | 100 | 30 | 10 | 20 | 100 | 100 | 100 |  |  |  |  |  |  |  |  |
| Fc1cc(Cl)cnc1Oc1ccccc1-c1cc(C(F)F)no1 [Example 1-36] | 80 | very good herbicidal activity | significantly improved crop plant tolerance | 100 | 0 | 20 | 10 |  |  | 100 | 100 | 100 | 100 | 100 | 90 | 100 | 100 | 100 |
| Fc1cccc(Oc2ccc(Cl)cn2)c1-c1cc(C(F)F)no1 [Example 1-17] | 100 | very good herbicidal activity | significantly improved crop plant tolerance | 100 | 20 | 0 | 20 |  |  | 90 |  |  |  |  |  |  |  |  |
| Cc1cccc(Oc2ncc(Cl)cc2F)c1-c1cc(C(F)F)no1 [Example 1-20] |  |  |  |  |  |  |  | 100 | 100 |  | 90 | 100 | 100 | 100 | 90 | 100 | 100 | 100 |
| FC(F)c1cc(-c2ccccc2Oc2ccc(Cl)cn2)on1 [Example 1-35] | 100 | very good herbicidal activity | significantly improved crop plant tolerance | 80 | 0 | 10 | 20 | 90 | 100 | 100 |  | 100 | 100 | 100 |  | 90 | 100 | 100 |
| Cc1cccc(Oc2ccc(Cl)cn2)c1-c1cc(C(F)F)no1 [Example 1-18, 5-[2-[(5-Chloro-2-pyridyl)oxy]-6-methylphenyl]-3-(difluoromethyl)isoxazole] |  |  |  |  |  |  |  | 100 | 100 |  | 100 | 100 | 100 | 100 |  | 90 | 100 | 100 |
| Fc1cccc(Oc2ccc(Br)cn2)c1-c1cc(C(F)F)no1 [Example 1-40] |  |  |  |  |  |  |  | 100 | 100 |  | 100 | 100 | 100 | 100 | 100 | 100 | 100 | 100 |

From patent US12052991B2, “Substituted pyridinyloxybenzenes and salts thereof and use thereof as herbicidal agents” (Bayer Aktiengesellschaft, priority 2018, dated 2024)
